The numbers were not newly measured in patent US20080069886A1, “Spironolactone nanoparticles, compositions and methods related thereto” (JAGOTEC AG, priority 2001, published 2008), which cites them from elsewhere.

SMILES strings stand for the structures.

As to `CC(=O)S[C@@H]1CC2=CC(=O)CC[C@]2(C)[C@H]2CC[C@@]3(C)[C@@H](CC[C@@]34CCC(=O)O4)[C@H]12` [Spironolactone], the solubility in water was 2.8 mg/100 ml.
